Measured values published in patent publication US20230404893A1, “Oral Care Compositions Comprising Ascorbic Acid Derivatives” (Colgate-Palmolive Company, priority 2020, published 2023).

Experiments:
[1] = Color of toothpaste samples measured with a spectrophotometer (L*, a*, b*); type: physicochemical; details: basic toothpaste formulas with sodium ascorbyl phosphate, with/without sodium stearate
Experimental: To overcome this color issue, surfactants are added to the basic toothpaste formulas in combination with sodium ascorbyl phosphate. Table 15 describes one basic toothpaste formula, to which sodium ascorbyl phosphate and surfactants are added. Three surfactants, sodium stearate, sodium cocoyl glutamate and sodium lauryl isoethionate, are screened, alone and in different combinations with/without sodium ascorbyl phosphate.
Samples of basic toothpaste G with different amounts and combinations of surfactants with/without sodium ascorbyl phosphate are prepared and evaluated for color, as shown in Table 16. A high “b*” value indicates a more yellow color while a lower value indicates a more blue color. A high “L*” value indicates a whiter sample compared to a low “L*” value which indicates a darker sample. As can be observed in Table 16 samples without sodium stearate that incorporate sodium ascorbyl phosphate tends to increase the “b*” value, indicating a more yellow color. Samples that incorporate sodium stearate with sodium ascorbyl phosphate tend to have a relative reduction in “b*” value, indicating less yellow color.

[2] = Standard brushing study, Toothpaste F samples (starting L 57.3-66.3, twelve teeth per cell); set-up: species or system bovine; details: ΔW data of Table 14, Toothpaste F
Experimental: Bovine enamel teeth mounted individually in resin blocks are purchased and brushed with an abrasive paste until initial “L” values were 56-68. Trays are prepared for the brushing machine and each tray consists of six teeth mounted using 3D printed trays. Baseline optical measurements of the bovine teeth are taken using a spectrophotometer and the trays are loaded onto the brushing machine.
Toothbrushes are placed on the brushing machine by removing the head of a manual toothbrush from its handle. Slurry composed of 1:1 ratio by weight of test toothpaste to artificial saliva is prepared and added to each tray. The teeth are brushed for two minutes with 250 grams of pressure at 120 strokes per minute. After brushing is stopped, the slurry is removed and residual toothpaste is rinsed away with deionized water. The brushing treatment is repeated a total of 14 times and measurements are taken every 2 cycles. The teeth are then gently blotted with a paper towel to remove excess liquid and measurements are taken with the spectrophotometer. […] The “L”, “a”, and “b” values are determined and are used to calculate the change in whiteness “ΔW” for each tooth after the treatment. […]

O=C1O[C@H]([C@@H](O)CO)C([O-])=C1OP(=O)([O-])[O-].[Na+].[Na+].[Na+] [sodium ascorbyl phosphate]
color of the toothpaste (in words) [1]: observable yellow color
whitening efficacy (in words) [2]: significant effect on whitening efficacy
